Each block holds one molecule with its values, some of them ahead of it.
Tests used:
FIG-ROS(S) = biological target: T1, FIG-ROS(S) (Homo sapiens, UniProt P08922); assay: Western blotting of phosphorylation in FIG-ROS(S) expressing BaF3 cells; assay type: cell-based
T1 construct: expressed in transfected cells; host or cells: BaF3 cells, retrovirally transduced, selected for IL3-independent growth
Description: (§1) All antibodies were from Cell Signaling Technology, Inc. (Danvers, Mass.)
(§2) Since ROS, ALK, LTK, InsR, and IGF1R belong to the same family of tyrosine kinases, they may share similar structure in the kinase domain.

FIG-ROS(L) = FIG-ROS(L) (Homo sapiens, UniProt P08922); assay: Western blotting of phosphorylation in FIG-ROS(L) expressing BaF3 cells; assay type: cell-based
Description: as §1, §2

[1] = system: BaF3 cells transduced with the FLT-3ITD retrovirus; assay: Western blotting of phosphorylation in BaF3 cells transduced with the FLT-3ITD retrovirus; assay type: cell-based
Description: as §1, §2

[2] = system: BaF3 expressing FIG-ROS(L); assay: MTS assay, growth of BaF3 cells expressing FIG-ROS(L); assay type: cell-based; conditions: for IC50: Mus musculus, BaF3, 72 h
Description: (§3) BaF3 and Karpas 299 cells were obtained from DSMZ (Deutsche Sammlung von Mikroorganismen and Zellkulturen GmbH, Germany). BaF3 cells, which need interleukin-3 to survive, were maintained at 37° C. in RPMI-1640 medium (Invitrogen) with 10% fetal bovine serum (FBS) (Sigma) and 1.0 ng/ml murine IL-3 (R&D Systems). Karpas 299 cells (a lymphoma cell line) were grown in RPMI-1640 with 10% FBS.
(§4) BaF3 cells were transduced with retrovirus encoding FIG-ROS(S), FIG-ROS(L), or FLT-3ITD (the Internal tandem duplication mutation in FLT3 causes AML leukemia), and selected for IL3 independent growth. Karpas 299 cells, which express NPM-ALK, was used as a positive control. Retroviruses were generated as previously described (see PCT Publication No. WO 2010/093928, incorporated by reference).
(§5) A MTS assay was performed using the CellTiter 96 Aqueous One Solution Reagent (Promega, Catalog No G3582). […] After 72 hours, 20 μl of the CellTiter 96 Aqueous One Solution Reagent was added into each well of a 96 well assay plate (flat bottom), and then 100 μl of cells grown with or without treatment. Media-only wells were used as controls. The 96 well plate was incubated for 1-4 hours at 37° C., and then viable cells were counted by reading the absorbance at 490 nm using a 96 well plate reader.

[3] = system: BaF3 expressing FIG-ROS(S); assay: MTS assay, growth of BaF3 cells expressing FIG-ROS(S); assay type: cell-based; conditions: for IC50: Mus musculus, BaF3, 72 h
Description: as §3, §4, §5

BaF3 expressing FLT3ITD = assay: cells; conditions: for IC50: Mus musculus, BaF3, 72 h
Description: as §3, §4, §5

Karpas 299 cells [4] = assay: cells; conditions: for IC50: Homo sapiens, KARPAS-299, 72 h
Description: as §3, §4, §5

[5] = system: BaF3 cells transduced with neo-myc; assay: MTS assay, growth of BaF3 cells transduced with neo-myc (negative control); assay type: cell-based; conditions: Mus musculus, 72 hours, second experiment only
Description: as §3, §5

[6] = system: BaF3 cells expressing FIG-ROS(S); assay: Flow cytometry, cleaved caspase-3 as apoptosis marker, BaF3 FIG-ROS(S); assay type: cell-based; conditions: in the presence of TAE-684, FIG. 19
Description: (§6) The mechanism of death of the BaF3 and Karpas 299 cells was next assessed by measuring the percentage of cleaved-caspase 3 positive cells by flow cytometry assay using cleaved caspase-3 as a marker for apoptosis.

[7] = system: BaF3 cells expressing FIG-ROS(L); assay: Flow cytometry, cleaved caspase-3 as apoptosis marker, BaF3 FIG-ROS(L); assay type: cell-based; conditions: in the presence of TAE-684, FIG. 19
Description: as §6

Karpas 299 cells [8] = assay: Flow cytometry, cleaved caspase-3 as apoptosis marker, Karpas 299; assay type: cell-based; conditions: in the presence of TAE-684, FIG. 19
Description: as §6

ALK in Karpas 299 cells = assay: Western blotting of phosphorylation in Karpas 299 cells; assay type: cell-based; conditions: 0, 10, 50, or 100 nM for three hours, FIG. 20
Description: as §1, §2

[9] = 0, 0.1, 0.3, or 1.0 uM for three hours, FIG. 22
[10] = 72 hours, first of two experiments
[11] = 72 hours, second of two experiments
[12] = same concentration of each, 0-1.0 uM, FIG. 21A/21B
[13] = 0, 10, 50, or 100 nM for three hours, FIG. 20

phosphorylation of FIG-ROS(S) (FIG-ROS(S); [9]): inhibited | phosphorylation of STAT3 and ERK (FIG-ROS(S); [9]): inhibited | phosphorylation of FIG-ROS(L) (FIG-ROS(L); [9]): inhibited | phosphorylation of STAT3 and ERK (FIG-ROS(L); [9]): inhibited
SMILES: C[C@@H](Oc1cc(-c2cnn(C3CCNCC3)c2)cnc1N)c1c(Cl)ccc(F)c1Cl [crizotinib]
phosphorylation of STAT3 and ERK [1, 9]: not affected

IC50 [2, 10]: 0.00178 µM | IC50 [2, 11]: 0.00284 µM | IC50 [3, 10]: 0.0102 µM | IC50 [3, 11]: 0.015 µM | IC50 (BaF3 expressing FLT3ITD; first of two experiments): 0.419 µM | IC50 (BaF3 expressing FLT3ITD; second of two experiments): 0.316 µM | IC50 (Karpas 299 cells [4]; first of two experiments): 0.00485 µM | IC50 (Karpas 299 cells [4]; second of two experiments): 0.00436 µM | IC50 [5]: 1.64 µM | phosphorylation of FIG-ROS(S) (FIG-ROS(S); [13]): inhibited | phosphorylation of STAT3, AKT, and ERK, and Shp2 (FIG-ROS(S); [13]): inhibited | phosphorylation of FIG-ROS(L) (FIG-ROS(L); [13]): inhibited | phosphorylation of STAT3, AKT, and ERK, and Shp2 (FIG-ROS(L); [13]): inhibited
SMILES: COc1cc(N2CCC(N3CCN(C)CC3)CC2)ccc1Nc1ncc(Cl)c(Nc2ccccc2S(=O)(=O)C(C)C)n1 [TAE-684]
cellular growth response in the presence of TAE-684 ([2]; 0-1000 nM, 72 hours, FIG. 18): stopped growing | sensitivity of cellular growth, TAE-684 compared with crizotinib [2, 12]: more sensitive to TAE-684 than to crizotinib | cellular growth response in the presence of TAE-684 ([3]; 0-1000 nM, 72 hours, FIG. 18): stopped growing | sensitivity of cellular growth, TAE-684 compared with crizotinib [3, 12]: more sensitive to TAE-684 than to crizotinib | cellular growth response in the presence of TAE-684 (BaF3 expressing FLT3ITD; 0-1000 nM, 72 hours, FIG. 18): not susceptible | cellular growth response in the presence of TAE-684 (Karpas 299 cells [4]; 0-1000 nM, 72 hours, FIG. 18): stopped growing | mechanism of death, cleaved-caspase 3 positive cells (apoptosis) [6]: die by apoptosis | mechanism of death, cleaved-caspase 3 positive cells (apoptosis) [7]: die by apoptosis | mechanism of death, cleaved-caspase 3 positive cells (apoptosis) (Karpas 299 cells [8]): did not die by apoptosis | phosphorylation of STAT3, AKT, and ERK, and Shp2 [1, 13]: not affected | ALK and ERK phosphorylation (ALK in Karpas 299 cells): inhibited

— US11099188B2, “ROS kinase in lung cancer” (CELL SIGNALING TECHNOLOGY, INC., priority 2006, dated 2021)
